Data published in US12084419B2, “Cell metabolism modulating compounds and uses thereof” (CRESCENTA BIOSCIENCES, priority 2020, dated 2024).

Target: T1, His6 tagged human recombinant FABP4 (Homo sapiens, UniProt P15090)
T1 construct: purchased Cayman Chemicals 10009549
Assay: FABP4 TR-FRET assay: displacement of BODIPY FL C12 fatty acid
Settings: triplicates, inhibition of BODIPY FL C12 binding; for inhibition at 1 µM: 1 μM compound; for inhibition at 10 µM: 10 μM compound
Text: Activity of compounds with FABP4 was profiled using a Terbium (Tb) based time resolved fluorescence energy transfer (TR-FRET) assay. The assay measures the compound mediated displacement of the fluorescent fatty acid BODIPY FL C12 (Thermo Fisher; catalog number D3822) from His6 tagged human recombinant FABP4 (His6-FABP4; Cayman Chemicals, catalog number 10009549) via recording the energy transfer from TB donor molecule on anti-His6-tag antibody to acceptor BODIPY moiety. Briefly, compounds were prepared at a concentration of 0.362 mM and 0.0362 mM, and BODIPY FL C12 was prepared at 4.2 μM, in DMSO. 1.2 μL of each compound or DMSO (vehicle control) and 1.2 μL of BODIPY FL C12 were added into the wells of a 384-well black polypropylene plate. His6-FABP4 and Tb anti-His6 antibody were prepared in the assay buffer (25 mM Tris/HCl, pH 7.4, 0.4 mg/ml y-globulins, 0.010% NP-40, 1 mM DTT) at a concentration of 83 nM and 49.6 nM, respectively. The protein and antibody solutions were then mixed at a ratio of 34:7 (v/v) and incubated on ice for 30 minutes. The assay was initiated by adding 41 μL of the resulting protein/antibody solution into the wells containing the compounds and BODIPY FL C12. The plate was centrifuged and incubated at room temperature for 10 min. The TR-FRET signals were recorded using an EnVision Multilabel plate reader (PerkinElmer; TB excitation 320 nm, BODIPY FL C12 emission 520 nm; TB emission 615 nm). Relative fluorescence ratio (520 nm*10,000/615 nm) were used to calculate the compound mediated inhibition of BODIPY C12 FL fatty acid binding to FABP4. […] Glucose consumption and FABP4 inhibition is shown below in Table 3 below.

T1 sequence (P15090 whole entry): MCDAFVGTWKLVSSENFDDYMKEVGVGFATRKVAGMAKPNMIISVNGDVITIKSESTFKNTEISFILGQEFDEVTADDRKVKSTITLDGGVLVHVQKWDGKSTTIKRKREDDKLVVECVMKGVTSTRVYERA

For `CCCCCCC1CCCc2c(n(Cc3cccc(F)n3)c3c(C(=O)O)cccc23)C1` (stereo not drawn) [5-[(6-fluoropyridin-2-yl)methyl]-7-hexyl-5H,6H,7H,8H,9H,10H-cyclohepta[b]indole-4-carboxylic acid], the inhibition at 1 µM was 86.5% and the inhibition at 10 µM was 91.8%.
`CCCCCCC1CCCc2c(n(Cc3cccc(C(=O)O)n3)c3c(C(=O)O)cccc23)C1` (stereo not drawn) [6-({4-carboxy-7-hexyl-5H,6H,7H,8H,9H,10H-cyclohepta[b]indol-5-yl}methyl)pyridine-2-carboxylic acid] was tested, and the inhibition at 1 µM was 91.6% and the inhibition at 10 µM was 96.5%.
For `CCCCC1CCCCc2c1n(Cc1cccc(C(N)=O)c1)c1c(C(=O)O)cccc21` (stereo not drawn) [6-butyl-5-[(3-carbamoylphenyl)methyl]-5H,6H,7H,8H,9H,10H-cyclohepta[b]indole-4-carboxylic acid], the inhibition at 1 µM was 91.4% and the inhibition at 10 µM was 95.2%.
`CCCCC1CCCCc2c1n(Cc1cccc(C#N)c1)c1c(C(=O)O)cccc21` (stereo not drawn) [6-butyl-5-[(3-cyanophenyl)methyl]-5H,6H,7H,8H,9H,10H-cyclohepta[b]indole-4-carboxylic acid] was tested, and the inhibition at 1 µM was 71.3% and the inhibition at 10 µM was 85.7%.
`CCCCC1CCCc2c(n(Cc3ccccc3C(N)=O)c3c(C(=O)O)cccc23)C1` (stereo not drawn) [7-butyl-5-[(2-carbamoylphenyl)methyl]-5H,6H,7H,8H,9H,10H-cyclohepta[b]indole-4-carboxylic acid] showed an inhibition at 1 µM of 71.3% and an inhibition at 10 µM of 94.5%.
Compound `CCCCC1CCCc2c(n(Cc3ccccc3C#N)c3c(C(=O)O)cccc23)C1` (stereo not drawn) [7-butyl-5-[(2-cyanophenyl)methyl]-5H,6H,7H,8H,9H,10H-cyclohepta[b]indole-4-carboxylic acid] has an inhibition at 1 µM of 91.5% and an inhibition at 10 µM of 87.3%.
With `CCCCC1CCCc2c(n(Cc3ccccc3F)c3c(C(=O)O)cccc23)C1` (stereo not drawn) [7-butyl-5-[(2-fluorophenyl)methyl]-5H,6H,7H,8H,9H,10H-cyclohepta[b]indole-4-carboxylic acid] the inhibition at 1 µM was 92.1% and the inhibition at 10 µM was 88.1%.
With `CCCCC1CCCc2c(n(Cc3ccnc(OC)c3)c3c(C(=O)O)cccc23)C1` (stereo not drawn) [7-butyl-5-[(2-methoxypyridin-4-yl)methyl]-5H,6H,7H,8H,9H,10H-cyclohepta[b]indole-4-carboxylic acid] the inhibition at 1 µM was 83.4% and the inhibition at 10 µM was 88.2%.
With `CCCCC1CCCc2c(n(Cc3ccccc3C)c3c(C(=O)O)cccc23)C1` (stereo not drawn) [7-butyl-5-[(2-methylphenyl)methyl]-5H,6H,7H,8H,9H,10H-cyclohepta[b]indole-4-carboxylic acid] the inhibition at 1 µM was 101% and the inhibition at 10 µM was 95.3%.
Work on `CCCCC1CCCc2c(n(Cc3cccc(C(N)=O)c3)c3c(C(=O)O)cccc23)C1` (stereo not drawn) [7-butyl-5-[(3-carbamoylphenyl)methyl]-5H,6H,7H,8H,9H,10H-cyclohepta[b]indole-4-carboxylic acid] yielded an inhibition at 1 µM of 89.4% and an inhibition at 10 µM of 117%.
`CCCCC1CCCc2c(n(Cc3cccc(C(N)=O)c3)c3c(C(=O)NCCO)cccc23)C1` (stereo not drawn) [7-butyl-5-[(3-carbamoylphenyl)methyl]-N-(2-hydroxyethyl)-5H,6H,7H,8H,9H,10H-cyclohepta[b]indole-4-carboxamide] was tested, and the inhibition at 1 µM was 10.2%.
Compound `CCCCC1CCCc2c(n(Cc3cccc(C(=O)O)c3)c3c(C(=O)O)cccc23)C1` (stereo not drawn) [7-butyl-5-[(3-carboxyphenyl)methyl]-5H,6H,7H,8H,9H,10H-cyclohepta[b]indole-4-carboxylic acid] has an inhibition at 1 µM of 91.8% and an inhibition at 10 µM of 100%.
With `CCCCC1CCCc2c(n(Cc3cccc(Cl)c3)c3c(C(=O)O)cccc23)C1` (stereo not drawn) [7-butyl-5-[(3-chlorophenyl)methyl]-5H,6H,7H,8H,9H,10H-cyclohepta[b]indole-4-carboxylic acid] the inhibition at 1 µM was 84.2% and the inhibition at 10 µM was 83%.
Work on `CCCCC1CCCc2c(n(Cc3cccc(C#N)c3)c3c(C(=O)O)cccc23)C1` (stereo not drawn) [7-butyl-5-[(3-cyanophenyl)methyl]-5H,6H,7H,8H,9H,10H-cyclohepta[b]indole-4-carboxylic acid] yielded an inhibition at 1 µM of 73.5% and an inhibition at 10 µM of 112%.
